Results reported in PMC10251139 (SLAS discovery : advancing life sciences R & D, 2023).

Molecular target: T1, PLCγ2 (Homo sapiens, UniProt P16885)
T1 sequence (P16885 1-1195): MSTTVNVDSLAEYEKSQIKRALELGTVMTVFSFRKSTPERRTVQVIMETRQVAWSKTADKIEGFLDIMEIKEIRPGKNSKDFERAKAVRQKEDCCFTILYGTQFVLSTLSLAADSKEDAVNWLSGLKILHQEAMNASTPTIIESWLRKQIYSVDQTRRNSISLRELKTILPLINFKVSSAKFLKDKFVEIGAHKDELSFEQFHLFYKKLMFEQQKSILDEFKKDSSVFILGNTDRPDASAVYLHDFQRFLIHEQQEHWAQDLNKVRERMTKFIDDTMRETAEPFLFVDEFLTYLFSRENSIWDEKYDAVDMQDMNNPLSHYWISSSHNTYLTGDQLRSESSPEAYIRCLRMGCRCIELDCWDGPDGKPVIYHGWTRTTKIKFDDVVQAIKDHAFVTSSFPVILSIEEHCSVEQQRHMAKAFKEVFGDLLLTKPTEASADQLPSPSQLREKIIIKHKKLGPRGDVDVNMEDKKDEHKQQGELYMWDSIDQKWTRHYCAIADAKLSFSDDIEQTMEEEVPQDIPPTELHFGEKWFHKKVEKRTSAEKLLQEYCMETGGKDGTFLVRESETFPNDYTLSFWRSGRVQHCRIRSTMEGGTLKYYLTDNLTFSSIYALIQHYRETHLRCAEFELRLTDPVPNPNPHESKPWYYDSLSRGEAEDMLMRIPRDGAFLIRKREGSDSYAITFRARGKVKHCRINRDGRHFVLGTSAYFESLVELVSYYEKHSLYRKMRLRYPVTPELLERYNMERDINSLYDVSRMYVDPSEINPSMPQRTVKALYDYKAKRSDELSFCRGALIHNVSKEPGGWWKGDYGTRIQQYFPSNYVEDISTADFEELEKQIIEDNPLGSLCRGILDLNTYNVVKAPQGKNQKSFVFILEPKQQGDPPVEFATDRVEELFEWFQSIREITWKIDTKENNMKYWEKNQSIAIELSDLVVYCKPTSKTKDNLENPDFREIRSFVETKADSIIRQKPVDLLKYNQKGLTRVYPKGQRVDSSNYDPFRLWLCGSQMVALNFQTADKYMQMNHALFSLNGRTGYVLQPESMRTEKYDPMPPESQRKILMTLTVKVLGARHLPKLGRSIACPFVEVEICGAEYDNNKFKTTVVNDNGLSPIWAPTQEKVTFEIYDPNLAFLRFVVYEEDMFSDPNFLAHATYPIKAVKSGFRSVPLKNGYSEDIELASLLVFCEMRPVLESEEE
Experiment: inhibition of C8CF3-coumarin processing by purified enzyme
Format: biochemical

## Nc1ncnc2c1ncn2[C@@H]1O[C@H](COP(=O)(O)OP(=O)(O)OP(=O)(O)O)[C@@H](O)[C@H]1O [adenosine triphosphate]
  IC50: 27.2 µM
